The text below walks through data of patent publication US20250186450A1, “COMBINATION THERAPY COMPRISING DGK INHIBITORS and PD-1/PD-L1 INHIBITORS” (Incyte Corporation, priority 2023, published 2025).

SMILES strings stand for the structures.

Assay [1] deals with human CD3+ T cells co-cultured with allogenic dendritic cells. The assay can be described thus: Allogenic mixed lymphocyte reaction assay, IFNγ by HTRF. The format is cell-based. The procedure:
To assess the ability of 4-((2S,5R)-4-((3,3-difluorocyclobutyl)(4-(trifluoromethyl)phenyl)methyl)-2,5-dimethylpiperazin-1-yl)-2-methyl-1-(((S)-tetrahydrofuran-2-yl)methyl)-1H-[1,2,4]triazolo[3,4-b]purine (i.e., Compound 2) to further enhance the T cell effector function induced by checkpoint blockade, the combination effect of Compound 2 and anti-PD-1 reagent (retifanlimab and pembrolizumab) was evaluated in an allogenic mixed lymphocyte reaction assay.
In brief, Human PBMCs were isolated from leukopaks (BioIVT) obtained from healthy donors by the Ficoll-Paque (Cytiva 17144002) cell separation method. Monocyte isolation was performed using the Dynabeads Untouched human monocyte kit (Life Technologies 11350D), and monocytes were cultured in 10% FBS RPMI 1640 treated with 100 ng/mL granulocyte-macrophage colony-stimulating factor (R&D Systems 215-GM/CF) and 50 ng/mL IL-4 (R&D Systems 204-IL/CF) for at least 6 days at 37° C. with 5% CO2 to differentiate into dendritic cells. Pan T cells were isolated using the Dynabeads Untouched human T-cell kit (Life Technologies 11344D) and plated at 1×10^5 cells/well in 100 μL of 10% FBS RPMI 1640 in 96-well, round-bottom plates (Costar 3879). […] After 20 hours of incubation at room temperature, the HTRF signal was measured by the PHERAstar FSX microplate reader (BMG Labtech). […]

For another assay, the target named is DGKζ (Homo sapiens (Human), UniProt Q13574). The assay can be described thus: In vitro DGKζ inhibition assay (ADP-Glo). Format: biochemical. The following applies: 0.4 nM DGKζ, 30 μM ATP, 20 μM DLG. The protocol: (§1) The DGKα and DGKζ biochemical reactions were performed using His-tagged human recombinant enzymes (Signal Chem, DGKα, #D21-10BH; DGKζ, #D30-10H)) and DLG (Dilauroyl-sn-glycerol) lipid substrate (Signal Chem, #D430-59). ADP-Glo assay was performed using ADP-Glo™ kinase Assay kit (Promega, #V9104). The reactions were carried out in assay buffer containing 40 mM Tris, pH 7.5, 0.1% CHAPS, 0.1% Prionex, 40 mM NaCl, 5 mM MgCl2, 1 mM CaCl2, and 1 mM DTT. DGKα reactions contained 0.1 nM DGKα, 50 μM ATP, and 20 μM DLG. And DGKζ reactions contained 0.4 nM DGKζ, 30 μM ATP, and 20 μM DLG.
(§2) For compound inhibition studies, 40 nL test compound in DMSO was added to wells of white polystyrene plates in 384-well (Greiner, #784075) or 1536-well format (Greiner, #782075). Compounds were added with top concentration of 2 mM with 11 point, 3-fold dilution series. Enzyme solution (contains 2×DGK enzyme concentration in 1× assay buffer) was added to the plate in 2 μL/well volume, followed by 2 μL/well of substrate solution (contains 2× concentration of ATP and DLG substrate in 1× assay buffer). Plates were then centrifuged for 1 min at 1200 RPM and sealed or lidded. For 4 μL reaction volume, test compounds were therefore diluted 100× to final top concentration of 20 μM. After 90 minute incubation, reactions were quenched by addition of 2 μL/well Promega ADP-Glo Reagent, followed by centrifugation and lidding. After 60 min incubation, 2 μL/well Promega Kinase Detection Reagent was added, plates centrifuged, and incubated for 30 min. Plates were then read using Luminescence method on BMG PHERAstar FSX plate reader. Percent inhibition was calculated and IC50s were determined using 4-parameter fit in Genedata Screener. Labcyte Echo acoustic dispenser was used for compound addition, and Formulatrix Tempest liquid handler was used for all reagent dispenses.

The next assay concerns the target DGKα (Homo sapiens (Human), UniProt P23743). Briefly: In vitro DGKα inhibition assay (ADP-Glo). Format: biochemical. The following applies: 0.1 nM DGKα, 50 μM ATP, 20 μM DLG. The procedure:
as §1, §2

Chain of DGKζ (Q13574 whole entry): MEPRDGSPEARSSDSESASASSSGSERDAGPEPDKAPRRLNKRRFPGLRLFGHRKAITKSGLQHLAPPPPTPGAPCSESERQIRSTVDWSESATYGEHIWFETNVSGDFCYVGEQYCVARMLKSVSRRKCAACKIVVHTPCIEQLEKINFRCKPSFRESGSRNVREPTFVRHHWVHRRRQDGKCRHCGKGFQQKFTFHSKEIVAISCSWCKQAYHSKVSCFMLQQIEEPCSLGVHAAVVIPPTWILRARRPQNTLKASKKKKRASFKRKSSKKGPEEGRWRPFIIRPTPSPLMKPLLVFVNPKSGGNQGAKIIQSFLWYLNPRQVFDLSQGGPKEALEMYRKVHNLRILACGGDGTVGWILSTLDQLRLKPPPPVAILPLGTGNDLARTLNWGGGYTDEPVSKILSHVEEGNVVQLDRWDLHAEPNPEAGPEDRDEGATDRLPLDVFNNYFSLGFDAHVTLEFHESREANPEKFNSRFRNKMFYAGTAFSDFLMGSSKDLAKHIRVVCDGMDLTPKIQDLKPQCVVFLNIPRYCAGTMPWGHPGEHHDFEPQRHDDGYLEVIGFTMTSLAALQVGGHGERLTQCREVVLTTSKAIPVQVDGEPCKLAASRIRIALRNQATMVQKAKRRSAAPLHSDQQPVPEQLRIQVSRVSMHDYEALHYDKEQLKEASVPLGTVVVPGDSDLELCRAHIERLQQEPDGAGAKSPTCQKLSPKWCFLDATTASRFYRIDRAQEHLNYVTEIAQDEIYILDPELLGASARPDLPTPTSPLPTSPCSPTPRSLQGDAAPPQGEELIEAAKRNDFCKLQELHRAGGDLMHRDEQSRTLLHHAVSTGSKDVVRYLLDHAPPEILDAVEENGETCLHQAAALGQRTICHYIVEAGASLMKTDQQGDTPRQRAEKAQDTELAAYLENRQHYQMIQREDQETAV
Chain of DGKα (P23743 whole entry): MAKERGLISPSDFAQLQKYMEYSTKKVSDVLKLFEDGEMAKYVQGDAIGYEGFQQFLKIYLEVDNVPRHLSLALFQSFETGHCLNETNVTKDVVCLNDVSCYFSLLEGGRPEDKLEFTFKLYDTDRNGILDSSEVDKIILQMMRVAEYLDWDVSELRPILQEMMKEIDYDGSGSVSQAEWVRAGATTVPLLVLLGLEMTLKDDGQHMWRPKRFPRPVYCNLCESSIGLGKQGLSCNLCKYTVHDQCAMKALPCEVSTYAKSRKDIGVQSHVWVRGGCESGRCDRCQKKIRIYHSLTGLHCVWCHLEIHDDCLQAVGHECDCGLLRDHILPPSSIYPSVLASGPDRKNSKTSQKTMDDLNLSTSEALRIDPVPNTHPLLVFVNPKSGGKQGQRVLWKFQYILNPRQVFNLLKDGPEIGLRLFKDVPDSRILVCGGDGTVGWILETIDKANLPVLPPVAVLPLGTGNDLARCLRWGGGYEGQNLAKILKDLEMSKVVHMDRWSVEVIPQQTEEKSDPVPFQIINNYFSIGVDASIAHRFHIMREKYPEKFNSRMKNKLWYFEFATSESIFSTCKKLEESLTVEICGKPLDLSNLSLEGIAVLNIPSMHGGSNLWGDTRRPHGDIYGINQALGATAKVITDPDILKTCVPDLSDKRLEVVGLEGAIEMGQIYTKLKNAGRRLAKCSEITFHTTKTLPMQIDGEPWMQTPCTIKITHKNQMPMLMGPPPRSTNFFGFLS

As for `Cc1nc2c(N3C[C@@H](C)N(C(c4ccc(C(F)(F)F)cc4)C4CC(F)(F)C4)C[C@@H]3C)nc3nncn3c2n1C[C@@H]1CCCO1` (single isomer, unassigned) [Example 2], the “production of IFNγ, combination vs single agents” value in assay [1] (4 nM Compound 2 plus 0.7 nM pembrolizumab vs anti-PD-1 mAb or Compound 2 single agent, FIG. 5B) is reported as “statistically significant higher production of IFNγ”; in assay [1] (4 nM Compound 2 plus 0.7 nM retifanlimab vs anti-PD-1 mAb or Compound 2 single agent, FIG. 5A), “statistically significant higher production of IFNγ”. Further, the half-inhibitory concentration (IC50) at DGKζ and against DGKα was ≤ 20 nM throughout.

With `C[C@@H]1CN(c2nc3nncn3c3c2nnn3C[C@H]2CCCO2)[C@@H](C)CN1C(c1ccc(F)cc1)c1ccc(F)cc1` [Example 1, 4-((2S,5R)-4-(Bis(4-fluorophenyl)methyl)-2,5-dimethylpiperazin-1-yl)-1-(((R)-tetrahydrofuran-2-yl)methyl)-1H-[1,2,3]triazolo[4,5-e][1,2,4]triazolo[4,3-a]pyrimidine], the IC50 on DGKζ and on DGKα was ≤ 20 nM each time.

As a reminder, the IC50 is the concentration that inhibits the measured activity by half. Read a high IC50 as lower potency.
